Test results reported in the Deep4Chem optical property database.
Where “and” joins values, the source holds several entries; their conditions need not be identical. Identical values can stand only once. Blank lines part the entries; values can stand above or below the compound they belong to.

Experiment: solvent given as SMILES
[1] = in O=P(c1ccccc1)(c1ccccc1)c1ccccc1Oc1ccccc1P(=O)(c1ccccc1)c1ccccc1

Structure (SMILES): COC(=O)c1ccc(NC(=O)c2ccc(N(C)C)cc2)cc1
emission maximum (in C1CCCCC1): 434 nm
emission maximum (in C1CCOC1): 470 nm
emission maximum (in CC#N): 516 nm
emission maximum (in CCOCC): 456 nm

Structure (SMILES): Cc1cc(-c2nc(-c3ccccc3)nc(-c3ccccc3)n2)cc(C)c1N1c2ccccc2CCc2ccccc21
emission maximum (in Cc1ccccc1): 475.79 nm

Structure (SMILES): C=Cc1cc2cc3c(cc2oc1=O)OCO3
emission maximum (in CC#N): 448 nm

Structure (SMILES): N#CSC1=CC2=C(c3ccccc3)c3cc(SC#N)c(N4CCOCC4)n3[B-](F)(F)[N+]2=C1N1CCOCC1
emission maximum (in CC#N): 628 nm
emission maximum (in CCCCCC): 623 nm
emission maximum (in CCOC(C)=O): 628 nm
emission maximum (in CO): 620 nm
emission maximum (in ClCCl): 630 nm

Structure (SMILES): COc1cc2c(cc1/C=C(\C#N)c1nc3ccccc3s1)c1ccccc1n2C
emission maximum (in C1CCOC1): 499 nm
emission maximum (in CC#N): 509 nm
emission maximum (in CCOC(C)=O): 493 nm
emission maximum (in CN(C)C=O): 508 nm
emission maximum (in CO): 510 nm
emission maximum (in CS(C)=O): 518 nm
emission maximum (in Cc1ccccc1): 494 nm
emission maximum (in ClC(Cl)Cl): 504 nm
emission maximum (in ClCCl): 501 nm

Structure (SMILES): CC(C)[Si](C#Cc1c2nsnc2c(C#C[Si](C(C)C)(C(C)C)C(C)C)c2nc3c(ccc4cc5ccccc5cc43)nc12)(C(C)C)C(C)C
emission maximum (in CCCCCC): 605 nm

Structure (SMILES): CCCCCCCCCCCCOc1cc(C(=O)Nc2ccc(-c3ccc4c(c3)C(=O)c3cc(-c5ccc(NC(=O)c6cc(OCCCCCCCCCCCC)c(OCCCCCCCCCCCC)c(OCCCCCCCCCCCC)c6)cc5)ccc3-4)cc2)cc(OCCCCCCCCCCCC)c1OCCCCCCCCCCCC
emission maximum (in C1CCOC1): 542 nm

Structure (SMILES): CC[NH+](CC)c1ccc(-c2nc3c(nc2-c2ccc(B(c4c(C)cc(C)cc4C)c4c(C)cc(C)cc4C)cc2)c2ccccc2n3C)cc1
emission maximum (in C1CCOC1): 428.33 nm

Structure (SMILES): O=C1c2cccc3cc4ccccc4c(c23)C(=O)N1Cc1ccccn1
emission maximum (in C1CCOC1): 485 nm
emission maximum (in CCCCCC): 465 nm
emission maximum (in CCO): 500 nm
emission maximum (in Cc1ccccc1): 483 nm
emission maximum (in ClCCl): 490 nm

Structure (SMILES): CCOCCOCCOC(=O)/C=C/C1=CC2=C(c3c(C)cc(C)cc3C)c3cc(/C=C/C(=O)OCCOCCOCC)cn3[B-](F)(F)[N+]2=C1
emission maximum (in ClCCl): 606 nm

Structure (SMILES): Cc1ccccc1/C(C#N)=C/c1ccc(N(C)C)cc1
emission maximum (in C1CCOC1): 484 nm
emission maximum (in C1COCCO1): 476 nm
emission maximum (in CC#N): 427 nm
emission maximum (in CCCCCC): 431 nm
emission maximum (in CCCCCCC): 433 nm
emission maximum (in CCCCCO): 495 nm
emission maximum (in CCCCO): 502 nm
emission maximum (in CCCO): 505 nm
emission maximum (in CCO): 509 nm
emission maximum (in CCOC(C)=O): 490 nm
emission maximum (in CN(C)C=O): 456 nm
emission maximum (in CO): 450 nm
emission maximum (in CS(C)=O): 453 nm
emission maximum (in Cc1ccccc1): 464 nm
emission maximum (in ClC(Cl)Cl): 481 nm

Structure (SMILES): Oc1ccccc1C1=NC2c3cccc4cccc(c34)C2N1c1ccccc1 (configuration not stated)
emission maximum (in Cc1ccccc1): 575 nm

Structure (SMILES): CCCCCCN1C(=O)c2cc(-c3ccc(-n4c5ccccc5c5ccccc54)cc3)c(-c3ccc(-n4c5ccccc5c5ccccc54)cc3)cc2C1=O
emission maximum (in ClC(Cl)Cl): 548 nm
emission maximum (in c1ccc2c(c1)c1ccccc1n2-c1ccc(-c2ccc(-n3c4ccccc4c4ccccc43)cc2)cc1): 481 nm

Structure (SMILES): N#Cc1c(N2CCCCC2)cc(-c2ccc(O)cc2)c2c1-c1cccc3cccc-2c13
emission maximum (in C1CCCCC1): 527 nm
emission maximum (in C1COCCO1): 540 nm
emission maximum (in CC#N): 569 nm
emission maximum (in CCO): 548 nm
emission maximum (in CN(C)C=O): 573 nm
emission maximum (in CO): 554 nm
emission maximum (in CS(C)=O): 580 nm
emission maximum (in Cc1ccccc1): 530 nm
emission maximum (in ClCCl): 545 nm
emission maximum (in O): 550 nm

Structure (SMILES): CC(=O)c1nc(-c2ccc(N(C)C)cc2)oc1C
emission maximum (in CC#N): 376 nm
emission maximum (in CCO): 377 nm
emission maximum (in CCOC(C)=O): 370 nm
emission maximum (in CCOCC): 368 nm
emission maximum (in ClCCl): 373 nm

Structure (SMILES): C[Si]1(C)c2ccc(-c3ccc(-c4cccs4)s3)cc2C=Cc2cc(-c3ccc(-c4cccs4)s3)ccc21
emission maximum (in ClCCl): 424 nm

Structure (SMILES): O=C(c1ccc(C(=C(c2ccc(C(=O)c3ccc(-n4c5ccccc5c5ccccc54)cc3)cc2)c2ccc(C(=O)c3ccc(-n4c5ccccc5c5ccccc54)cc3)cc2)c2ccccc2)cc1)c1ccc(-n2c3ccccc3c3ccccc32)cc1
emission maximum (in C1CCOC1): 503 nm

Structure (SMILES): CCN(CC)c1ccc(-c2nc3c(c4c2-c2ccc(C#N)cc2CC4)-c2ccc(C#N)cc2CC3)cc1
emission maximum (in C1CCOC1): 499 nm
emission maximum (in CC#N): 525 nm
emission maximum (in CCCCCC): 455 nm
emission maximum (in CCOC(C)=O): 494 nm
emission maximum (in CO): 525 nm
emission maximum (in CS(C)=O): 541 nm
emission maximum (in Cc1ccccc1): 474 nm
emission maximum (in ClCCl): 493 nm

Structure (SMILES): O=S(=O)(c1ccccc1)c1ccc(-n2c3ccccc3c3c2c2ccccc2n3-c2ccccc2)cc1
emission maximum (in Cc1ccccc1): 476 nm

Structure (SMILES): CC(C)[Si](C#Cc1c2cc3ccccc3cc2c(C#C[Si](C(C)C)(C(C)C)C(C)C)c2nc3c(ccc4ccccc43)nc12)(C(C)C)C(C)C
emission maximum (in CCCCCC): 661 nm

Structure (SMILES): Cc1cc(C)c(B(c2cc(C#Cc3ccccc3)sc2-c2sc(C#Cc3ccccc3)cc2P(=O)(c2ccccc2)c2ccccc2)c2c(C)cc(C)cc2C)c(C)c1
emission maximum (in CO): 560 nm

Structure (SMILES): Cc1nn(-c2ccccc2)c2c1c(=O)oc1ccc(-n3c4ccccc4c4ccccc43)cc12
emission maximum (in Cc1ccccc1): 412 nm

Structure (SMILES): C[Si](C)(C)c1cccc2c(C#N)cccc12
emission maximum (in C1CCCCC1): 333 nm

Structure (SMILES): CCCC(=O)c1c(OCOC)c(OCOC)c(C(=O)CCC)c2c1OCO2
emission maximum (in CC#N): 503 nm

Structure (SMILES): CC1(C)C(/C=C/C2=C(c3ccc(C(=O)O)cc3)C(=C/C=C3/N(CCCCS(=O)(=O)[O-])c4ccc5ccccc5c4C3(C)C)/CCC2)=[N+](CCCCS(=O)(=O)[O-])c2ccc3ccccc3c21
emission maximum (in CO): 811 nm

Structure (SMILES): c1ccc2c(c1)-c1c(ccc3ccccc13)C21c2cc(-c3ccc4ccc5cccc6ccc3c4c56)ccc2-c2ccc(-c3ccc4ccc5cccc6ccc3c4c56)cc21
emission maximum (in ClC(Cl)Cl): 422 nm

Structure (SMILES): c1ccc(-c2nc(-c3ccccc3)nc(-c3ccc(-n4c5ccc(-n6c7ccccc7c7ccccc76)cc5c5cc(-n6c7ccccc7c7ccccc76)ccc54)cc3)n2)cc1
emission maximum (in Cc1ccccc1): 458 nm
emission maximum [1]: 475 nm and 450.31 nm

Structure (SMILES): N#Cc1c(C#N)c2cc(F)ccc2c2ccc(F)cc12
emission maximum (in ClC(Cl)Cl): 374 nm

Structure (SMILES): Cc1c(-c2ccc(N3c4ccccc4C(C)(C)c4ccccc43)cc2)ncnc1-c1ccc(N2c3ccccc3C(C)(C)c3ccccc32)cc1
emission maximum (in Cc1ccccc1): 477 nm
emission maximum [1]: 481 nm

Structure (SMILES): [NH3+]c1cc([NH3+])cc(-c2[nH+]c3ccccc3s2)c1
emission maximum (in O): 460 nm

Structure (SMILES): O=S(=O)(c1cccc(N2c3ccccc3Oc3ccccc32)c1)c1cccc(N2c3ccccc3Oc3ccccc32)c1
emission maximum (in C1CCOC1): 596 nm
emission maximum (in CCCCC(CC)n1c2ccc(-n3c4ccccc4c4ccccc43)cc2c2cc(-n3c4ccccc4c4ccccc43)ccc21): 542.52 nm
emission maximum (in Cc1ccccc1): 547 nm
emission maximum (in ClC(Cl)Cl): 572 nm
emission maximum (in c1cc(-n2c3ccccc3c3ccccc32)cc(-n2c3ccccc3c3ccccc32)c1): 546.26 nm

Structure (SMILES): CCCCCCOc1ccc(-c2cnc(-c3nnc(-c4ccc(OCCCCCC)cc4)o3)o2)cc1
emission maximum (in C1CCCCC1): 370 nm
emission maximum (in C1CCOC1): 386 nm
emission maximum (in CC#N): 400 nm
emission maximum (in CCO): 411 nm
emission maximum (in CO): 419 nm
emission maximum (in ClC(Cl)Cl): 390 nm

Next, values leading:

emission maximum (in CC#N): 584 nm
emission maximum (in CCCCCC): 597 nm
emission maximum (in CCOC(C)=O): 588 nm
emission maximum (in CO): 582 nm
emission maximum (in ClCCl): 586 nm
Structure (SMILES): CCCSC1=[N+]2C(=C(c3ccccc3)c3ccc(SCCC)n3[B-]2(F)F)C=C1SC#N

emission maximum (in CC#N): 557 nm
Structure (SMILES): COc1ccc(-c2csc(/C(C#N)=C/c3ccc(Cl)cc3Cl)n2)cc1

emission maximum (in ClCCl): 391 nm
Structure (SMILES): COc1ccc(-c2ccc3c(c2)C=Cc2cc(-c4ccc(OC)cc4)ccc2[Si]3(C)C)cc1

emission maximum (in C1CCCCC1): 339.9 nm
Structure (SMILES): Cc1cccc2ccccc12

emission maximum (in ClC(Cl)Cl): 403 nm
Structure (SMILES): CSc1ccc2cc(C#N)c3ccc4ccccc4c3c2c1

emission maximum (in CC(C)O): 557 nm
emission maximum (in CCO): 551 nm
emission maximum (in CO): 545 nm
emission maximum (in O): 534 nm
Structure (SMILES): O=C([O-])c1ccccc1-c1c2cc(I)c(=O)c(I)c-2oc2c(I)c([O-])c(I)cc12

emission maximum (in ClCCl): 632 nm
Structure (SMILES): COc1ccc(C2=C(c3ccc(OC)cc3)c3cccc4c5c(cc(c34)O2)=NC(C#N)C(C#N)N=5)cc1 (configuration not stated)

emission maximum (in CS(C)=O): 585 nm
Structure (SMILES): CCCCN1/C(=C/C=C/C2=[N+](C)c3ccccc3C2(C)C)C(C)(C)c2cc(OC)ccc21

emission maximum (in C1CCCCC1): 475.96 nm
emission maximum (in C1CCOC1): 505.05 nm
emission maximum (in CN(C)C=O): 521.92 nm
emission maximum (in CO): 529.1 nm
emission maximum (in ClC(Cl)Cl): 505.05 nm
emission maximum (in c1ccccc1): 483.09 nm
Structure (SMILES): CC1(C)Cc2c(c3ccccc3c3nc4ccccc4nc23)O1

emission maximum (in ClC(Cl)Cl): 469.48 nm
Structure (SMILES): CCCCCCn1c2cc(/C=C(\C#N)c3cccs3)ccc2c2ccc(/C=C(\C#N)c3cccs3)cc21

emission maximum (in CO): 382 nm
Structure (SMILES): O=C(O)CCCOc1cc2ccc3cccc4ccc(c1)c2c34

emission maximum (in CC#N): 466 nm
Structure (SMILES): Oc1ccc2ccccc2c1/C=N/CC/N=C/c1c(O)ccc2ccccc12

emission maximum (in CC#N): 452 nm
Structure (SMILES): C[C@@]12SC(Cl)=CC1=c1nc(-c3ccccc3)[nH]c1=C1C=C(Cl)S[C@]12C

emission maximum (in C1CCCCC1): 397 nm
emission maximum (in C1COCCO1): 418 nm
emission maximum (in CC#N): 428 nm
emission maximum (in CN(C)C=O): 424 nm
emission maximum (in CO): 428 nm
emission maximum (in O): 480 nm
emission maximum (in OCC(O)CO): 451 nm
emission maximum (in OCCO): 440 nm
Structure (SMILES): O=C1NC(=O)/C(=C\c2ccccc2O)S1

emission maximum (in CO): 775 nm
emission maximum (in O): 769 nm
Structure (SMILES): CC[N+]1=C(/C=C/C=C/C=C/C=C2/N(CCCCCC(=O)O)c3ccccc3C2(C)C)C(C)(C)c2cc(S(=O)(=O)[O-])ccc21

emission maximum (in CO): 496 nm
Structure (SMILES): O=C(O)c1ccc(-c2cnc(-c3ccc(N(c4ccccc4)c4ccccc4)cc3)s2)cc1

emission maximum (in ClCCl): 403 nm
Structure (SMILES): CC(C)(C)NC(=O)c1cccc2ccc3c4ccccc4c4ccccc4c3c12

emission maximum (in CCO): 461 nm
Structure (SMILES): Cc1c(C)n2c(COC(=O)c3ccccc3I)c(C)c(=O)n2c1=O

emission maximum (in ClCCl): 418 nm
Structure (SMILES): COC(=O)c1c(-c2cc3ccccc3oc2=O)nn(-c2cccc(Cl)c2)c1C(=O)OC

emission maximum (in ClCCl): 401 nm
Structure (SMILES): CCOC(=O)c1c(-c2cc3ccccc3oc2=O)nn(-c2ccccc2)c1C(=O)OCC
